According to patent US20090074867A1, “ORALLY DISPERSIBLE PHARMACEUTICAL COMPOSITION AND PROCESS FOR THE PREPARATION THEREOF” (priority 2004, published 2009):

Assay: Dissolution / microcapsule releasing test in phosphate buffer pH 7.2, 100 rpm, UV spectrophotometer
Format: physicochemical
Description: The test was carried out in phosphate buffer at pH 7.2 (obtained by dissolving 6.8 g of KH2 PO4 and 1.4 g of NaOH in 1 litre of demineralised water) at 100 rpm for the microcapsule dissolution test and 50 rpm for the tablet dissolution test according to the method described in European Pharmacopoeia, Ed. 4.4 of the April 2003. • dissolution in phosphate buffer at pH 7.2 (obtained by dissolving 6.8 g of KH2PO4 and 1.4 g of NaOH in 1 litre of demineralised water) at 100 rpm; the average of 5 tests has given the following results: • 30.1% after 5 minutes, 58.6% after 10 minutes, 71.0% after 15 minutes, 78.8% after 20 minutes, 86.9% after 30 minutes, • palatability: the palatability test was carried out as indicated above administering 200 mg of Ibuprofen BP 80 to each individual. […] The microcapsules obtained in Examples 1 to 3 (MC1, MC2 and MC3) were subjected to the releasing test in phosphate buffer by means of a UV spectrophotometer. In order to assist comparison the results obtained on AI as such in the same test are shown in the bottom line (see previous Experimental Part).

AI released, 0 min (0 min): 0%
AI released, 5 min: 30.1%
AI released, 5 min (listed as AI): 30.10%
AI released, 10 min: 58.6%
AI released, 10 min (listed as AI): 58.60%
AI released, 15 min: 71.0%
AI released, 15 min (listed as AI): 71.00%
AI released, 20 min: 78.8%
AI released, 20 min (listed as AI): 78.80%
AI released, 30 min: 86.9%
AI released, 30 min (listed as AI): 86.90%
SMILES: CC(C)Cc1ccc(C(C)C(=O)O)cc1 (centres unmarked) [Ibuprofen BP 80, Ibuprofen]
